In patent US12083124B2 (Incyte Corporation, priority 2019, dated 2024):
Read-outs that look alike come from different tables or passages of the source.

Key:
[1] = molecular target: wild-type un-phosphorylated FGFR3 (Homo sapiens, UniProt P22607); experiment: FGFR Enzymatic Assay (FRET peptide phosphorylation), FGFR3
[2] = molecular target: wild-type un-phosphorylated FGFR1 (Homo sapiens, UniProt P11362); experiment: FGFR Enzymatic Assay (FRET peptide phosphorylation), FGFR1; conditions: pre-incubated for 4 hours
Sequence of wild-type un-phosphorylated FGFR1 (P11362 22-822): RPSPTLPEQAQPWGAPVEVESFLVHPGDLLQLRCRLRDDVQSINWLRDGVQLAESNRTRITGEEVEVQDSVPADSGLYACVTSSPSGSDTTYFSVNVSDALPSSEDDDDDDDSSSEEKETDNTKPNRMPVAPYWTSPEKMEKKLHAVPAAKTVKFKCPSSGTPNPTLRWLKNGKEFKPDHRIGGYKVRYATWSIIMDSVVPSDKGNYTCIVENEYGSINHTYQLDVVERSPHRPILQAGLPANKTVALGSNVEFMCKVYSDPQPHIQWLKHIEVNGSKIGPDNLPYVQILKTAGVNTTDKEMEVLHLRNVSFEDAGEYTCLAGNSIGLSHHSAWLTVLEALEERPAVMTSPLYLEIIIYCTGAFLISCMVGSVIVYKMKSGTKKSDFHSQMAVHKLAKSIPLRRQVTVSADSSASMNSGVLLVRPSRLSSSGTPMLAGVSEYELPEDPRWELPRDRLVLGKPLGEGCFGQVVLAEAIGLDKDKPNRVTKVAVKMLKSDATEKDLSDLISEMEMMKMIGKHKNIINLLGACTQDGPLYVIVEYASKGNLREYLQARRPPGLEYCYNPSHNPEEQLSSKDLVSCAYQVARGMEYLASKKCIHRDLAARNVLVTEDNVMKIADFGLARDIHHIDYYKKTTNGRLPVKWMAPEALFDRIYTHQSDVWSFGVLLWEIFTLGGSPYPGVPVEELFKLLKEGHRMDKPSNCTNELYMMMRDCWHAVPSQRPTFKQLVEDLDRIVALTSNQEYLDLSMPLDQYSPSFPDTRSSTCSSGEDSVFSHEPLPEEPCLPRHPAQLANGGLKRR
Protocol: The inhibitor potency of the exemplified compounds was determined in an enzyme discontinuous assay that measures peptide phosphorylation using FRET measurements to detect product formation. Inhibitors were serially diluted in DMSO and a volume of 0.2 μL was transferred to the wells of a 384-well plate. […] Appropriate controls (enzyme blank and enzyme with no inhibitor) were included on the plate. […] The 10 μL/well reaction concentration of the peptide substrate was 500 nM whereas the ATP concentration was maintained near or below the ATP Km. The ATP Km values were pre-determined in a separate series of experiments. The reaction plate was incubated at 25° C. for 1 hr and the reactions were ended with the addition of 5 μL/well of quench solution (50 mM Tris, 150 mM NaCl, 0.5 mg/mL BSA, pH 7.8; 45 mM EDTA, 600 nM staurosporin, with Perkin Elmer Lance Reagents at 3.75 nM Eu-antibody PY20 and 180 nM APC-Streptavidin). The plate was allowed to equilibrate for ˜10 minutes at ambient temperature before scanning on a PheraStar plate reader (BMG Labtech) instrument.
Either GraphPad prism or XLfit was used to analyze the data. The IC50 values were derived by fitting the data to a four parameter logistic equation producing a sigmoidal dose-response curve with a variable Hill coefficient. Prism equation: Y=Bottom+(Top-Bottom)/(1+10^((Log IC50-X)*Hill slope)); XLfit equation: Y=(A+((B−A)/(1+((X/C)^D)))) where X is the logarithm of inhibitor concentration and Y is the response.
GraphPad prism3 was used to analyze the data. The IC50 values were derived by fitting the data to the equation for a sigmoidal dose-response with a variable slope. Y=Bottom+(Top-Bottom)/(1+10^((Log IC50-X)*Hill Slope)) where X is the logarithm of concentration and Y is the response.
The data in Table 1 was measured in wild-type un-phosphorylated FGFR1, FGFR2, FGFR3, and FGFR4 proteins.

[3] = molecular target: wild-type un-phosphorylated FGFR4 (Homo sapiens, UniProt P22455); experiment: FGFR Enzymatic Assay (FRET peptide phosphorylation), FGFR4
Sequence of wild-type un-phosphorylated FGFR4 (P22455 22-802): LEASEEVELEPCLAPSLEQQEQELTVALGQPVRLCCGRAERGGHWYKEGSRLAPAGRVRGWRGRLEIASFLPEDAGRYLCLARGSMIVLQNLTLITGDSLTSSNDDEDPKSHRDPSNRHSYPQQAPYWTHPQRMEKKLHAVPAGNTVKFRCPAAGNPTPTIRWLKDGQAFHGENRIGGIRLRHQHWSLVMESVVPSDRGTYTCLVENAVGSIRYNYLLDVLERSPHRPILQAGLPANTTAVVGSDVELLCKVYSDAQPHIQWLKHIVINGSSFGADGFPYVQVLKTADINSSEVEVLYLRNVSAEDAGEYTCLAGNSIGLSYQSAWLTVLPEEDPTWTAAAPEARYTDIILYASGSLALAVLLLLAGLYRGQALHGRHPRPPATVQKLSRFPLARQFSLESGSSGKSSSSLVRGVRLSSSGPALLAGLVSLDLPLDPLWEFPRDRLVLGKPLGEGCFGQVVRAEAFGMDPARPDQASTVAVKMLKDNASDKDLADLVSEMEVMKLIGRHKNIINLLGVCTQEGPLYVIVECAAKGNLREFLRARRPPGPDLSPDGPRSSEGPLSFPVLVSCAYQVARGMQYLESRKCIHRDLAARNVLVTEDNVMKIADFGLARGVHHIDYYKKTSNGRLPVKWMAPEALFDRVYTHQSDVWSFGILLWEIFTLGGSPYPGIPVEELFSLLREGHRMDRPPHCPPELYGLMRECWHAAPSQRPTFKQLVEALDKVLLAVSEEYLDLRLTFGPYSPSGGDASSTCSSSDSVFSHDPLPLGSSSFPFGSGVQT

[4] = molecular target: wild-type un-phosphorylated FGFR2 (Homo sapiens, UniProt P21802); experiment: FGFR Enzymatic Assay (FRET peptide phosphorylation), FGFR2
Sequence of wild-type un-phosphorylated FGFR2 (P21802 22-821): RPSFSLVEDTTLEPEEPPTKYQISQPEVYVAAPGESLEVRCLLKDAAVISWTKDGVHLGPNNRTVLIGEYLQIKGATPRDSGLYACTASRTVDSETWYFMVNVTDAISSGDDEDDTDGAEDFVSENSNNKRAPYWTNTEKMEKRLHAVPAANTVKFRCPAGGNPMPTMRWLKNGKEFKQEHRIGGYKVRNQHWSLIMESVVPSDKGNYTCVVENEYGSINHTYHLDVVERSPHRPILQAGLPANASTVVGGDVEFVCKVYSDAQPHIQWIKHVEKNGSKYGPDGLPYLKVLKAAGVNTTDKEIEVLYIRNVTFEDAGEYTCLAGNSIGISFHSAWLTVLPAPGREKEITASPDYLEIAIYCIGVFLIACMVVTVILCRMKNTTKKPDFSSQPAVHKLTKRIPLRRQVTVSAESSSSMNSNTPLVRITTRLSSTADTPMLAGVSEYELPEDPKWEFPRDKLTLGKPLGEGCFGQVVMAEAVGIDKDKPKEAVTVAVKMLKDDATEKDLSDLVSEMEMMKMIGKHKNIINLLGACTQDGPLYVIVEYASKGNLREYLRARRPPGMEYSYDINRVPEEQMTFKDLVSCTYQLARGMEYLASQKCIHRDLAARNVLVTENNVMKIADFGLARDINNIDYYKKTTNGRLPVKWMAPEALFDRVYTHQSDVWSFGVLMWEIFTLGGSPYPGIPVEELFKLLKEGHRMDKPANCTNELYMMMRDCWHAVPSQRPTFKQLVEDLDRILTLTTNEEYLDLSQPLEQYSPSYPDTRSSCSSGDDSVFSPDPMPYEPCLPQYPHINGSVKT

[5] = FGFR1, wild-type un-phosphorylated FGFR1
[6] = read-out: FGFR1, wild-type un-phosphorylated FGFR1
[7] = read-out: FGFR4, wild-type un-phosphorylated FGFR4, pre-incubated for 4 hours
[8] = read-out: FGFR2, wild-type un-phosphorylated FGFR2, pre-incubated for 4 hours

Sequence of wild-type un-phosphorylated FGFR3 (P22607 23-806): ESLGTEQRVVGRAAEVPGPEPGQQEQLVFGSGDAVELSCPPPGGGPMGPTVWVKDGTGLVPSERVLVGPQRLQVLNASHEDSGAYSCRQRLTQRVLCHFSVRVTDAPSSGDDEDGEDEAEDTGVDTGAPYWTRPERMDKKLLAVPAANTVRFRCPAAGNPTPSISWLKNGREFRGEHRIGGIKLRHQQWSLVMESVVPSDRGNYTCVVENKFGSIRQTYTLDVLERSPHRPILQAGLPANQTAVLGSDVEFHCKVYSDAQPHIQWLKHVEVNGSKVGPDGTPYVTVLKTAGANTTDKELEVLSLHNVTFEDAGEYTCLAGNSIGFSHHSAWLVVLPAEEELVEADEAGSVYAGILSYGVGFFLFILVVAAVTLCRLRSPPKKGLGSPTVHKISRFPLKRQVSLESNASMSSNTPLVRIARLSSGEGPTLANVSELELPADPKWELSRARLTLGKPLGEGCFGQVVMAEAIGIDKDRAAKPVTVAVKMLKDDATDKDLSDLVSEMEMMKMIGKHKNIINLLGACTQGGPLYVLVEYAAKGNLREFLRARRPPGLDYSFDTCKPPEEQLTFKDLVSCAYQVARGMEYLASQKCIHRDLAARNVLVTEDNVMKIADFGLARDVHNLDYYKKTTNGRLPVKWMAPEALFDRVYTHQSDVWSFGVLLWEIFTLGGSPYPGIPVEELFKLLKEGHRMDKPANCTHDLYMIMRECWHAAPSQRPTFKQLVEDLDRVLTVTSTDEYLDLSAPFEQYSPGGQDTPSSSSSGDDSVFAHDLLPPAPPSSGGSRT

| Structure (SMILES) | IC50 [1] [nM] | IC50 [2, 5] [nM] | IC50 [3] [nM] | IC50 [4] [nM] | IC50 [2, 6] [nM] | IC50 [3, 7] [nM] | IC50 ([1]; read-out: FGFR3, wild-type un-phosphorylated FGFR3, pre-incubated for 4 hours) [nM] | IC50 [4, 8] [nM] |
| --- | --- | --- | --- | --- | --- | --- | --- | --- |
| COc1cc2[nH]nc(-c3ccc(C4CCC(N(C)S(C)(=O)=O)C4)nc3)c2nc1-c1cccc2c1CCC2 (stereo not drawn) [Example 154, N-(3-(5-(5-(2,3-Dihydro-1H-inden-4-yl)-6-methoxy-1H-pyrazolo[4,3-b]pyridin-3-yl)pyridin-2-yl)cyclopentyl)-N-methylmethanesulfonamide] | < 6 | 40 to 100 | > 100 | < 6 | – | – | – | – |
| COc1cc2[nH]nc(-c3cnn([C@H]4CCN(C(=O)CO)C4)c3)c2nc1-c1cccc2c1CCC2 [Example 129, (S)-1-(3-(4-(5-(2,3-Dihydro-1H-inden-4-yl)-6-methoxy-1H-pyrazolo[4,3-b]pyridin-3-yl)-1H-pyrazol-1-yl)pyrrolidin-1-yl)-2-hydroxyethan-1-one] | < 6 | – | – | < 6 | 6 to 40 | 6 to 40 | – | – |
| COc1cc2[nH]nc(-c3cnn(C4CN(C(C)=O)C4)c3)c2nc1-c1cccc2c1CCC2 [Example 22, 1-(3-(4-(5-(2,3-Dihydro-1H-inden-4-yl)-6-methoxy-1H-pyrazolo[4,3-b]pyridin-3-yl)-1H-pyrazol-1-yl)azetidin-1-yl)ethan-1-one] | < 6 | 40 to 100 | 40 to 100 | < 6 | – | – | – | – |
| [2H]C1(n2cc(-c3n[nH]c4cc(OC)c(-c5cccc6c5CCC6C#N)nc34)cn2)CCN(C(=O)C2CCOCC2)CC1 (stereo not drawn) [Example 167, 4-(6-Methoxy-3-(1-(1-(tetrahydro-2H-pyran-4-carbonyl)piperidin-4-yl-4-d)-1H-pyrazol-4-yl)-1H-pyrazolo[4,3-b]pyridin-5-yl)-2,3-dihydro-1H-indene-1-carbonitrile] | < 6 | 40 to 100 | 40 to 100 | < 6 | – | – | – | – |
| COC(=O)N1CCC(c2ccc(-c3n[nH]c4cc(OC)c(-c5cccc6c5CCC6C#N)nc34)cn2)CC1 (stereo not drawn) [Example 180, Methyl 4-(5-(5-(1-Cyano-2,3-dihydro-1H-inden-4-yl)-6-methoxy-1H-pyrazolo[4,3-b]pyridin-3-yl)pyridin-2-yl)piperidine-1-carboxylate] | < 6 | 40 to 100 | 40 to 100 | < 6 | – | – | – | – |
| COc1cc2[nH]nc(-c3ccc(N4CCN(C)CC4)nc3)c2nc1-c1cccc2c1CCC2C#N (stereo not drawn) [Example 110, 4-(6-Methoxy-3-(6-(4-methylpiperazin-1-yl)pyridin-3-yl)-1H-pyrazolo[4,3-b]pyridin-5-yl)-2,3-dihydro-1H-indene-1-carbonitrile] | < 6 | – | – | < 6 | 6 to 40 | 6 to 40 | – | – |
| COc1cc2[nH]nc(-c3cnn(C4CN(C(=O)[C@H]5C[C@@](C)(O)C5)C4)c3)c2nc1-c1cccc2c1CCC2 [Example 136, (3-(4-(5-(2,3-Dihydro-1H-inden-4-yl)-6-methoxy-1H-pyrazolo[4,3-b]pyridin-3-yl)-1H-pyrazol-1-yl)azetidin-1-yl)((1s,3s)-3-hydroxy-3-methylcyclobutyl)methanone] | < 6 | – | – | < 6 | 6 to 40 | 6 to 40 | – | – |
| COc1cc2[nH]nc(-c3ccc(C4CCN(C(=O)[C@@H]5CCCN5C)CC4)nc3)c2nc1-c1cccc2c1CCC2 [Example 108, 5-(2,3-Dihydro-1H-inden-4-yl)-6-methoxy-3-(6-(1-(methyl-L-prolyl)piperidin-4-yl)pyridin-3-yl)-1H-pyrazolo[4,3-b]pyridine] | < 6 | – | – | < 6 | 6 to 40 | 6 to 40 | – | – |
| COc1cc2[nH]nc(-c3cnn(C4CN(S(=O)(=O)CCN(C)C)C4)c3)c2nc1-c1cccc2c1CCC2 [Example 151, 2-((3-(4-(5-(2,3-Dihydro-1H-inden-4-yl)-6-methoxy-1H-pyrazolo[4,3-b]pyridin-3-yl)-1H-pyrazol-1-yl)azetidin-1-yl)sulfonyl)-N,N-dimethylethan-1-amine] | < 6 | – | 40 to 100 | < 6 | 6 to 40 | – | – | – |
| COc1cc2[nH]nc(-c3ccc(C4CCN(C(=O)N5CCOCC5)CC4)nc3)c2nc1-c1cccc2c1CCC2C#N (single isomer, unassigned) [Example 181, 4-(6-Methoxy-3-(6-(1-(morpholine-4-carbonyl)piperidin-4-yl)pyridin-3-yl)-1H-pyrazolo[4,3-b]pyridin-5-yl)-2,3-dihydro-1H-indene-1-carbonitrile] | < 6 | – | – | < 6 | 6 to 40 | 6 to 40 | – | – |
| COc1cc2[nH]nc(-c3ccc(C4CCN(C(=O)C5COCCN5C)C4)nc3)c2nc1-c1cccc2c1CCC2 (single isomer, unassigned) [Example 109] | < 6 | – | – | < 6 | 6 to 40 | 6 to 40 | – | – |
| COc1cc2[nH]nc(-c3ccc(N4CCN(C)CC4)nc3)c2nc1-c1cccc(C)c1C [Example 41, 5-(2,3-Dimethylphenyl)-6-methoxy-3-(6-(4-methylpiperazin-1-yl)pyridin-3-yl)-1H-pyrazolo[4,3-b]pyridine] | < 6 | 40 to 100 | 40 to 100 | < 6 | – | – | – | – |
| COc1cc2[nH]nc(-c3ccc(C4CCN(C(=O)CO)C4)nc3)c2nc1-c1cccc2c1CCC2 (single isomer, unassigned) [Example 102, 1-(3-(5-(5-(2,3-Dihydro-1H-inden-4-yl)-6-methoxy-1H-pyrazolo[4,3-b]pyridin-3-yl)pyridin-2-yl)pyrrolidin-1-yl)-2-hydroxyethan-1-one] | – | – | – | – | 6 to 40 | 6 to 40 | < 6 | < 6 |
| COc1cc2[nH]nc(-c3ccc(C4CC(N(C)C(=O)CCO)C4)nc3)c2nc1-c1cccc2c1CCC2 (stereo not drawn) [Example 189, N-(3-(5-(5-(2,3-Dihydro-1H-inden-4-yl)-6-methoxy-1H-pyrazolo[4,3-b]pyridin-3-yl)pyridin-2-yl)cyclobutyl)-3-hydroxy-N-methylpropanamide] | < 6 | – | – | < 6 | 6 to 40 | 6 to 40 | – | – |
| COc1cc2[nH]nc(-c3ccc(C4CN(C(=O)[C@@H]5CCCCN5C)C4)nc3)c2nc1-c1cccc2c1CCC2 [Example 173, (S)-(3-(5-(5-(2,3-Dihydro-1H-inden-4-yl)-6-methoxy-1H-pyrazolo[4,3-b]pyridin-3-yl)pyridin-2-yl)azetidin-1-yl)(1-methylpiperidin-2-yl)methanone] | < 6 | – | – | < 6 | 6 to 40 | 6 to 40 | – | – |
| COc1cc2[nH]nc(-c3cnn(C)c3)c2nc1-c1cccc2c1CCC2 [Example 2, 5-(2,3-Dihydro-1H-inden-4-yl)-6-methoxy-3-(1-methyl-1H-pyrazol-4-yl)-1H-pyrazolo[4,3-b]pyridine] | < 6 | 40 to 100 | 40 to 100 | < 6 | – | – | – | – |
| COc1cc2[nH]nc(-c3ccc(OC4CCOCC4)nc3)c2nc1-c1cccc2c1CC(O)C2 (stereo not drawn) [Example 96, 4-(6-Methoxy-3-(6-((tetrahydro-2H-pyran-4-yl)oxy)pyridin-3-yl)-1H-pyrazolo[4,3-b]pyridin-5-yl)-2,3-dihydro-1H-inden-2-ol] | < 6 | 40 to 100 | > 100 | – | – | – | – | 6 to 40 |
| COc1cc2[nH]nc(-c3cnn(C4CN(S(C)(=O)=O)C4)c3)c2nc1-c1cccc2c1CCC2 [Example 23, 5-(2,3-Dihydro-1H-inden-4-yl)-6-methoxy-3-(1-(1-(methylsulfonyl)azetidin-3-yl)-1H-pyrazol-4-yl)-1H-pyrazolo[4,3-b]pyridine] | < 6 | > 100 | > 100 | < 6 | – | – | – | – |
